Values quoted from earlier work in patent US10513689B2, “Culture media for multipotent stem cells” (Hope Biosciences LLC, priority 2016, dated 2019).

Tested on: MSCs
Conditions: Tamama et al., 2010

EGF: Epidermal growth factor, mitogen of MSCs
increase in the number of colony-forming units: 25%
